Legend:
CeGNA1 [1] = biological target: T1, CeGNA1 (Caenorhabditis elegans, UniProt Q17427); assay: X-ray crystal structure, […] Å; MALDI-TOF mass spectrometry; format: binding; conditions: covalent; disulfide to Cys141, inactive enzyme, reversed by DTT; nonreducing crystallisation, pH 8.5
T1 construct: gene gna-1; full-length, 165 residues; GST fusion from pGEX-6P-1 in E. coli BL21(DE3) pLysS, GST cut with PreScission protease; homodimer; 18 876 Da by MALDI

CeGNA1 [2] = biological target: T1, CeGNA1; assay: X-ray crystal structure, […] Å; format: binding; conditions: ternary product complex with CoA; acceptor (GlcN-6P) subsite at dimer interface; crystals at pH 8.5

T1 sequence (Q17427 whole entry, the tested form may be a part): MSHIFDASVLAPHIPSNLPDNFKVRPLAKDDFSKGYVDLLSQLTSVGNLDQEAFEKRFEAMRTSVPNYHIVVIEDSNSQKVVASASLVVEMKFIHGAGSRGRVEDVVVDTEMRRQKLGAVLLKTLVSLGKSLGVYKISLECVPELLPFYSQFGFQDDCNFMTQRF

Structure (SMILES) | X-ray crystal structure, 1.55 Å; MALDI-TOF mass spectrometry (CeGNA1 [1]) | X-ray crystal structure, 1.75 Å (CeGNA1 [2])
CC(C)(COP(=O)(O)OP(=O)(O)OC[C@H]1O[C@@H](n2cnc3c(N)ncnc32)[C@H](O)[C@@H]1OP(=O)(O)O)[C@@H](O)C(=O)NCCC(=O)NCCS [CoA] | the CoA thiol has formed a covalent complex with the enzyme through a disulfide | 
CC(=O)N[C@H]1C(O)O[C@H](COP(=O)(O)O)[C@@H](O)[C@@H]1O (some centres unmarked) [GlcNAc-6P] |  | occupied by the products CoA and GlcNAc-6-phosphate, both with well defined electron density
